Measured values taken from US5688767A, “Treatment of endotoxin-associated disorders with cationic peptides” (priority 1996, dated 1997).
≈ marks a conversion by molar mass, not a printed value.

Experiments:
E. cloacae = test: microbe, parasite or virus in culture; format: cell-based, Enterobacter cloacae
Method: (§1) The minimum inhibitory concentrations of (MIC) of CEME, CEMA and melittin were determined for a number of different bacteria (Table 2). Briefly, cells were grown overnight at 37° C. in LB-S (Luria broth without any salt supplement) and diluted one in 10,000 in the same medium to give concentrations of about 10^4 to 10^5 CFU/ml. The broth dilutions were set up in a 96 well microtiter plate by putting 200 μl of LB-S containing the initial concentration of antibiotic or compound in column 1 and 100 μl of the same medium in columns 2-12. The compounds were diluted by taking 100 μl of broth from column 1 and mixing it with column 2, resulting in a one in two dilution. This was continued to column 10. Finally, 10 μl of bacteria were pipetted into columns 1-11, and the plates incubated overnight at 37° C. The next day the plates were scored for growth in the wells, and the MIC determined.
(§2) Bacteria included the Bort strain of E. coli (Bortolussi, et al., Inf. Immun., 25:293, 1979) that was originally derived from a case of neonatal meningitis, and which is therefore considered a relevant pathogenic strain to study, and the 0111:B4 strain of E. coli (kindly provided by Dr. D. Morrison) which is a standard source of endotoxin. (Kelly, et al., Inf. Immun., 59:4491, 1991). In addition, P. aeruginosa PA01 strain H103, P. aeruginosa M2, P. aeruginosa K799, Eschericha coli UB 1005, Enterobacter cloacae 218S, Salmonella typhimurium MS7953s, Klebsiella pneumoniae ATCC 13883, Xanthomonas maltophilia ATCC 13637, and Acinetobacter calcoacetious 8193 were employed. LPS was obtained from E. coli Bort by the technique of Westphal and Jann, (Westphal, et al., Acad. Press, Inc. NY., 5:83) and from P. aeruginosa H103 by the method of Darveau and Hancock, (Darveau, et al., J. Bacteriol, 155:831, […]). E. coli 0111:B4 LPS was purchased from Sigma.

S. aureus = test: microbe, parasite or virus in culture; format: cell-based, Staphylococcus aureus
Method: as §1

[1] = test system: P. aeruginosa H309 or E. cloacae 218R1; format: cell-based, Pseudomonas aeruginosa; Enterobacter cloacae; conditions: 10 μM NPN
Excerpt: The second assay determined membrane permeability by the ability of 1-N-phenylnaphthylamine(NPN), a small fluorescent probe, to insert itself into the membrane. Normally, very little NPN can penetrate the outer membrane, but in the presence of a membrane permeabilizer it can insert into the hydrophobic membrane resulting in an increase in fluorescence (FIGS. 7 and 8). This N-phenylnaphthylamine uptake assay was previously described by Loh, et al., Antimicrobial Agents and Chemo., 26:546, 1984. Cells were prepared exactly the same as for the lysozyme lysis assay. 1-N-phenylnaphthylamine(NPN) was dissolved in acetone at a concentration of 500 μM. NPN fluorescence was measured in a Perkin-Elmer 650-10S fluorescent spectrophotometer using excitation and emission wavelengths set to 350 nm and 420 nm respectively, with slit widths of 5 nm. The assay was standardized by adding 20 μl of NPN (final concentration of 10 μM) and 10 μl of 0.64 mg/ml of polymyxin B (final concentration of 6.4 μg/ml) into 1 ml of cells, and adjusting the resulting fluorescence to read 90% deflection (90 arbitrary units). Various compounds were tested by adding 10 μl of different concentrations to a cuvette containing 1 ml of cells and 10 μM NPN. Permeabilizing activity was designated as the total fluorescence minus the fluorescence due to NPN alone. Following the fluorescence measurement, the OD600 of the cells was taken to ensure no significant cell lysis had occurred.

P. aeruginosa = test: microbe, parasite or virus in culture; format: cell-based, Pseudomonas aeruginosa
Method: as §1, §2

E. coli = test: microbe, parasite or virus in culture; format: cell-based, Escherichia coli
Method: as §1, §2

P. AERUGINOSA H309 = test: microbe, parasite or virus in culture; format: cell-based, Pseudomonas aeruginosa
Method: as §1, with “Briefly,” for “The minimum inhibitory concentrations of (MIC) of CEME, CEMA and melittin were determined for a number of different bacteria (Table 2). Briefly,”

[2] = test system: P. aeruginosa H309 Whole Cells; test: DPx binding inhibition using whole cells; design: species or system Pseudomonas aeruginosa; conditions: DPx at 90-100% binding saturation, average of at least three trials
Method: For DPx binding inhibition assays using whole cells instead of purified LPS, H309 cells were prepared the same way as for the lysozyme lysis assay. The assay consisted of 10 μl of cells at an OD600 of 0.5, 990 μl of 5 mM HEPES pH 7.2 and 5 mM KCN, and the concentration of DPx that gave 90-100% binding saturation. […] Compounds were titrated in, and I50 values were determined as described above.

[3] = strain 218S, Parent of 218R1 (Table 2)
[4] = strain RN4220, Methicillin sensitive
[5] = strain SAP0017, Methicillin resistant
[6] = strain H188, Antibiotic sensitive
[7] = strain UB1005, Parent of DC2 (Table 2)

Compound: CC[C@H](C)[C@H](NC(=O)CNC(=O)[C@@H](NC(=O)[C@H](CCCCN)NC(=O)[C@H](CCCCN)NC(=O)[C@H](Cc1ccccc1)NC(=O)[C@H](CC(C)C)NC(=O)[C@H](CCCCN)NC(=O)[C@H](Cc1c[nH]c2ccccc12)NC(=O)[C@@H](N)CCCCN)[C@@H](C)CC)C(=O)NCC(=O)N[C@@H](C)C(=O)N[C@H](C(=O)N[C@@H](CC(C)C)C(=O)N[C@@H](CCCCN)C(=O)N[C@H](C(=O)N[C@@H](CC(C)C)C(=O)N[C@H](C(=O)N[C@H](C(=O)NCC(=O)N[C@@H](CC(C)C)C(=O)N1CCC[C@H]1C(=O)N[C@@H](C)C(=O)N[C@@H](CC(C)C)C(=O)N[C@@H](CCCCN)C(=O)N[C@@H](CC(C)C)C(=O)N[C@H](C(=O)N[C@@H](CCCCN)C(=O)O)[C@@H](C)O)[C@@H](C)O)[C@@H](C)O)C(C)C)C(C)C [CEMA]
- MIC (E. cloacae; Enterobacter cloacae 218S (Table 9)): 4 µg/mL (≈ 1.3 µM)
- MIC (E. cloacae; strain 218R1, β-lactam resistant): 1.4 µg/mL (≈ 0.457 µM)
- MIC (E. cloacae; [3]): 2.8 µg/mL (≈ 0.913 µM)
- MIC (S. aureus; [4]): > 5.6 µg/mL
- MIC (S. aureus; [5]): > 5.6 µg/mL
- activity in opening up the membrane to NPN [1]: equally active
- MIC (P. aeruginosa; Pseudomonas aeruginosa H103): 8 µg/mL (≈ 2.61 µM)
- MIC (P. aeruginosa; Pseudomonas aeruginosa K799): 2.8 µg/mL (≈ 0.913 µM)
- MIC (P. aeruginosa; strain H187, Parent of H188): 2.8 µg/mL (≈ 0.913 µM)
- MIC (P. aeruginosa; [6]): 1.4 µg/mL (≈ 0.457 µM)
- MIC (P. aeruginosa; strain H309, Wildtype): 2.8 µg/mL (≈ 0.913 µM)
- MIC (E. coli; Escherichia coli 0111:B4): 4 µg/mL (≈ 1.3 µM)
- MIC (E. coli; Escherichia coli Bort): 8 µg/mL (≈ 2.61 µM)
- MIC (E. coli; Escherichia coli UB1005 (Table 9)): 4 µg/mL (≈ 1.3 µM)
- MIC (E. coli; strain DC2, Polymyxin sensitive): 0.7 µg/mL (≈ 0.228 µM)
- MIC (E. coli; strain SC9251, Parent of SC9252): 1.4 µg/mL (≈ 0.457 µM)
- MIC (E. coli; strain SC9252, Polymyxin resistant): 1.4 µg/mL (≈ 0.457 µM)
- MIC (E. coli; [7]): 2.8 µg/mL (≈ 0.913 µM)
- MIC (P. AERUGINOSA H309; +5 mM Mg^++): 22.4 µg/mL (≈ 7.31 µM)
- MIC (P. AERUGINOSA H309; +80 mM Na^+): 5.6 µg/mL (≈ 1.83 µM)
- MIC (P. AERUGINOSA H309; No addition): 2.8 µg/mL (≈ 0.913 µM)
- I50, Value in μg/ml [2]: 1.15 ± 0.09 µg/mL
- IC50 ([2]; read-out: I50, Value in μM): 0.37 ± 0.03 µM

Compound: polymyxin B
- MIC (E. cloacae; [3]): 0.5 µg/mL
- MIC (S. aureus; [4]): > 8 µg/mL
- MIC (S. aureus; [5]): > 8 µg/mL
- activity in opening up the membrane to NPN [1]: equally active
- MIC (P. aeruginosa; strain H187, Parent of H188): 0.5 µg/mL
- MIC (P. aeruginosa; [6]): 0.06 µg/mL
- MIC (P. aeruginosa; strain H309, Wildtype): 0.5 µg/mL
- MIC (E. coli; [7]): 0.5 µg/mL
- MIC (P. AERUGINOSA H309; +5 mM Mg^++): 1 µg/mL
- MIC (P. AERUGINOSA H309; +80 mM Na^+): 0.5 µg/mL
- MIC (P. AERUGINOSA H309; No addition): 0.5 µg/mL
- I50, Value in μg/ml [2]: 3.7 ± 1.20 µg/mL
